Results on 3 compounds are retold here after patent publication US20240216421A1, “COMBINATION PRODUCT AND METHODS FOR PREVENTING THE EMERGENCE OF ANTIBIOTIC-RESISTANT BACTERIA UNDER ANTIBIOTIC TREATMENT” (DIOTHERIS, priority 2021, published 2024).

The subject of assay [1] is S. aureus fosfomycin-resistant mutants. The experiment in a line: Fosfomycin MIC of bacteria forming colonies on negative-control plates, agar dilution method. The assay is classed as cell-based, Staphylococcus aureus. How it is done:
(§1) A 5 McFarland suspension of Corynebacterium aurimucosum CIP 102616 was prepared from a 48 h-culture on Columbia 5% sheep blood agar at 35+/−2° C., and 300 μl of this suspension (≈10^7 CFU) were inoculated by swabbing on a 90 mm diameter blood agar plate containing 50 μg/mL of fosfomycin; 300 μl of saline was inoculated as “negative control” (fosfomycin-containing agar plate not inoculated with C. aurimucosum). A 10 McFarland suspension of S. aureus (ATCC 29213 or NCTC 12493) was prepared as described in Example 1, and 20 μl drops of this suspension (≈10^7 CFU) were spread out on a 47-mm diameter, 0.2 μm filter placed on top of the agar plate. Plates were incubated at 35+/−2° C., and the growth of fosfomycin-resistant mutants was determined as described in Example 1. Fosfomycin MIC values of bacteria forming fosfomycin-resistant colonies on “negative-control” plates were determined using the agar dilution method.

In assay [2] the test system is S. aureus NCTC 12493. The experiment in a line: Co-culture on fosfomycin-containing blood agar: growth of fosfomycin-resistant mutant colonies. As to conditions: ≈10^7 CFU S. aureus on 0.2 μm filter, blood agar with 50 μg/mL fosfomycin, no non-pathogenic microorganism. The assay is classed as cell-based, Staphylococcus aureus. Here is the method: as §1
(§2) Serial 1/5 dilutions were prepared from a 100 McFarland suspension of C. aurimucosum and 250 μl of each bacterial suspension was inoculated by swabbing on a 90 mm diameter blood agar plate containing 50 μg/mL of fosfomycin, in order to obtain ≈10^9, ≈2×10^8, ≈4×10^7, ≈8×10^6, ≈1.6×10^6, ≈3.2×10^5, ≈6.4×10^4, ≈1.3×10^4, ≈2.5×10^3, ≈5×10^2, ≈10^2, and ≈20 CFU per plate. Materials and methods were otherwise as described in Example 2. […]

In assay [3] the test system is S. aureus ATCC 29213. The description is as above. The assay is classed as cell-based, Staphylococcus aureus. As to conditions: ≈10^7 CFU S. aureus on 0.2 μm filter, blood agar with 50 μg/mL fosfomycin, no non-pathogenic microorganism. Here is the method: as §1, §2
For assay [4], the system named is Corynebacterium species. As to conditions: natural resistance; fosfomycin resistance breakpoint >32 μg/mL; cited from earlier work.
Assay [5] concerns S. aureus ATCC 29213. Kind of assay: Co-culture on mupirocin-containing blood agar: growth of mupirocin-resistant mutant colonies. The assay is classed as cell-based, Staphylococcus aureus. As to conditions: ≈10^9 CFU S. aureus on 0.2 μm filter, blood agar with 8 μg/mL mupirocin, no non-pathogenic microorganism. How it is done:
(§3) A 5 McFarland suspension of Corynebacterium aurimucosum CIP 102616 was prepared as described in Example 2, and 300 μl of this suspension (≈10^7 CFU) were inoculated by swabbing on a 90 mm diameter blood agar plate containing 8 μg/mL of mupirocin; 300 μl of saline was inoculated as “negative control” (mupirocin-containing agar plate not inoculated with C. aurimucosum). Materials and methods were otherwise as described in Example 2, except that ≈10^9 CFU of S. aureus (ATCC 29213 or NCTC 12493) were spread out on the 0.2 μm filter placed on top of the agar plate.

The test system of assay [6] is S. aureus NCTC 12493. The description is as above. The assay is classed as cell-based, Staphylococcus aureus. As to conditions: ≈10^9 CFU S. aureus on 0.2 μm filter, blood agar with 8 μg/mL mupirocin, no non-pathogenic microorganism. How it is done: as §3
Assay [7] concerns Corynebacterium species. As to conditions: natural resistance; mupirocin resistance breakpoint >2 μg/mL; cited from earlier work.
Assay [8] concerns C. aurimucosum Rif^R mutant. The experiment in a line: Rifampicin MIC, agar dilution method. Type of assay: cell-based. As to conditions: Corynebacterium aurimucosum, rifampicin resistance breakpoint MIC >16 μg/mL. Here is the method: Spontaneous rifampicin-resistant colonies were obtained in one step by plating ≈10^9 CFU of C. aurimucosum CIP 102616 on blood agar plates supplemented with 20 μg/mL of rifampicin. Five clones were re-isolated on rifampicin-containing plates, and one of them was selected (C. aurimucosum CIP 102616 Rif^R mutant).

The subject of assay [9] is S. epidermidis Rif^R mutant. Kind of assay: Rifampicin MIC, agar dilution method. Conditions: Staphylococcus epidermidis, rifampicin resistance breakpoint MIC >16 μg/mL. Type of assay: cell-based.
In assay [10] the test system is S. aureus rifampicin-resistant mutants. The experiment in a line: Rifampicin MIC of bacteria forming colonies on negative-control plates, agar dilution method. The assay is classed as cell-based, Staphylococcus aureus. How it is done:
A 5 McFarland suspension of CIP 102616 Rif^R was prepared from a 48 h-culture on Columbia 5% sheep blood agar at 35+/−2° C., and 300 μl of this suspension (≈10^7 CFU) was inoculated by swabbing on a 90 mm diameter blood agar plate containing 20 μg/mL of rifampicin; 300 μl of saline was inoculated as “negative control” (rifampicin-containing agar plate not inoculated with CIP 102616 Rif^R). Materials and methods were otherwise as described in Example 2, except that one 40 μl drop (≈10^7 CFU) was spread out on each filter. Rifampicin MIC values of bacteria forming rifampicin-resistant colonies on “negative-control” plates were determined using the agar dilution method.

“Also recorded” adds a separate entry of the source.

As for `C[C@@H]1O[C@@H]1P(=O)(O)O` [fosfomycin], the MIC in assay [1] (Staphylococcus aureus, read-out: fosfomycin MIC values of colonies on negative-control plates) was not below 32 µg/mL. In addition, in assay [1] (agar dilution method), the “share of fosfomycin-resistant mutant colonies with MIC of 64 μg/mL or higher” value is reported as “≈ 50%” and the “share of fosfomycin-resistant mutant colonies with MIC of 256 μg/mL or higher” value is recorded as “≈ 30%”. The “fosfomycin-resistant mutant colonies, fosfomycin alone” value in [2] is on record as “colonies of fosfomycin-resistant mutants were detected; also recorded: Fosfomycin-resistant colonies developed”. Moreover, the “fosfomycin-resistant mutant colonies, fosfomycin alone” value in assay [3] is listed as “colonies of fosfomycin-resistant mutants were detected; also recorded: Fosfomycin-resistant colonies developed”. Also, the “fosfomycin MIC values” in assay [4] is more than 256 µg/mL.
Regarding `C/C(=C\C(=O)OCCCCCCCCC(=O)O)C[C@@H]1OC[C@H](C[C@@H]2O[C@H]2[C@@H](C)[C@H](C)O)[C@@H](O)[C@H]1O` [mupirocin], the “mupirocin-resistant mutant colonies, mupirocin alone” value in assay [5] and in [6] was “Colonies of mupirocin-resistant mutants were detected” in each case. Moreover, the “mupirocin MIC values” in assay [7] was more than 16 µg/mL.
Turning to `CO[C@H]1/C=C/O[C@@]2(C)Oc3c(C)c(O)c4c(O)c(c(/C=N/N5CCN(C)CC5)c(O)c4c3C2=O)NC(=O)/C(C)=C\C=C\[C@H](C)[C@H](O)[C@@H](C)[C@@H](O)[C@@H](C)[C@H](OC(C)=O)[C@@H]1C` [rifampicin], the MIC in assay [8] is more than 256 µg/mL. Further, the MIC in assay [9] was more than 256 µg/mL. In addition, in [10] (Staphylococcus aureus, read-out: rifampicin MIC values of colonies on negative-control plates), the MIC is not below 16 µg/mL. In [10] (agar dilution method), the “share of rifampicin-resistant mutants with MIC of 64 μg/mL or higher” value is 100%, the “share of rifampicin-resistant mutants with MIC of 128 μg/mL or higher” value is given as “≈ 75%” and the “share of rifampicin-resistant mutants with MIC of 256 μg/mL or higher” value was “≈ 25%”.
